Measurements taken from PubChem BioAssay (NCI).
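In this assay, cells in 96-well plates receive the compound at five concentrations for 48 hours. Endpoints are linearly interpolated between the surrounding concentrations. The concentration for 50% growth inhibition is given as GI50. Definition used: TGI = concentration required for complete inhibition of growth.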

How the values were obtained:
Assay in all cases: NCI tumour cell line growth inhibition, 48 h
OVCAR-4 ovarian = test system: OVCAR-4 ovarian
SW-620 colon = test system: SW-620 colon
COLO 205 colon = test system: COLO 205 colon
PC-3 prostate = test system: PC-3 prostate
K-562 leukemia = test system: K-562 leukemia
HS 578T breast = test system: HS 578T breast
KM12 colon = test system: KM12 colon
UO-31 renal = test system: UO-31 renal
MOLT-4 leukemia = test system: MOLT-4 leukemia
MCF7 breast = test system: MCF7 breast
OVCAR-8 ovarian = test system: OVCAR-8 ovarian
SF-539 CNS = test system: SF-539 CNS
SNB-19 CNS = test system: SNB-19 CNS
SN12C renal = test system: SN12C renal
OVCAR-3 ovarian = test system: OVCAR-3 ovarian
A498 renal = test system: A498 renal
OVCAR-5 ovarian = test system: OVCAR-5 ovarian
UACC-62 melanoma = test system: UACC-62 melanoma
HL-60(TB) leukemia = test system: HL-60(TB) leukemia
NCI-H460 lung = test system: NCI-H460 lung
DU-145 prostate = test system: DU-145 prostate
SNB-75 CNS = test system: SNB-75 CNS
NCI-H522 lung = test system: NCI-H522 lung
CAKI-1 renal = test system: CAKI-1 renal
NCI-H23 lung = test system: NCI-H23 lung
MDA-MB-435 = test system: MDA-MB-435
SK-MEL-5 melanoma = test system: SK-MEL-5 melanoma
HOP-62 NSCLC = test system: HOP-62 NSCLC
SF-268 CNS = test system: SF-268 CNS
NCI/ADR-RES ovarian = test system: NCI/ADR-RES ovarian
NCI-H226 lung = test system: NCI-H226 lung
SK-MEL-2 melanoma = test system: SK-MEL-2 melanoma
HCC-2998 colon = test system: HCC-2998 colon
M14 melanoma = test system: M14 melanoma
HCT-15 colon = test system: HCT-15 colon
SR leukemia = test system: SR leukemia
TK-10 renal = test system: TK-10 renal
MDA-MB-468 breast = test system: MDA-MB-468 breast
HOP-92 NSCLC = test system: HOP-92 NSCLC
MDA-MB-231 breast = test system: MDA-MB-231 breast
T-47D breast = test system: T-47D breast
U251 CNS = test system: U251 CNS
786-0 renal = test system: 786-0 renal
IGROV1 ovarian = test system: IGROV1 ovarian
RXF 393 renal = test system: RXF 393 renal
HT29 colon = test system: HT29 colon
CCRF-CEM leukemia = test system: CCRF-CEM leukemia
A549 NSCLC = test system: A549 NSCLC
LOX IMVI melanoma = test system: LOX IMVI melanoma
ACHN renal = test system: ACHN renal
BT-549 breast = test system: BT-549 breast
RPMI-8226 leukemia = test system: RPMI-8226 leukemia
UACC-257 melanoma = test system: UACC-257 melanoma
HCT-116 colon = test system: HCT-116 colon
SK-OV-3 ovarian = test system: SK-OV-3 ovarian
SK-MEL-28 melanoma = test system: SK-MEL-28 melanoma
SF-295 CNS = test system: SF-295 CNS
EKVX NSCLC = test system: EKVX NSCLC
MALME-3M melanoma = test system: MALME-3M melanoma

COc1ccc(-c2nc(S(=O)(=O)c3ccccc3)c(S(C)(=O)=O)o2)cc1
GI50 (OVCAR-4 ovarian): 3.44 µM | TGI (OVCAR-4 ovarian): 15.4 µM | GI50 (SW-620 colon): 1.67 µM | TGI (SW-620 colon): 3.39 µM | GI50 (COLO 205 colon): 2.22 µM | TGI (COLO 205 colon): 4.9 µM | GI50 (PC-3 prostate): 14.1 µM | TGI (PC-3 prostate): 30 µM | GI50 (K-562 leukemia): 2.77 µM | TGI (K-562 leukemia): > 100 µM | GI50 (HS 578T breast): 12.8 µM | TGI (HS 578T breast): 48.4 µM | GI50 (KM12 colon): 17.6 µM | TGI (KM12 colon): 35.7 µM | GI50 (UO-31 renal): 5.43 µM | TGI (UO-31 renal): 18.3 µM | GI50 (MOLT-4 leukemia): 3.39 µM | TGI (MOLT-4 leukemia): 13.2 µM | GI50 (MCF7 breast): 2.46 µM | TGI (MCF7 breast): 8.25 µM | GI50 (OVCAR-8 ovarian): 13.6 µM | TGI (OVCAR-8 ovarian): 32.1 µM | GI50 (SF-539 CNS): 3.93 µM | TGI (SF-539 CNS): 14.6 µM | GI50 (SNB-19 CNS): 16.5 µM | TGI (SNB-19 CNS): 31.8 µM | GI50 (SN12C renal): 11.4 µM | TGI (SN12C renal): 23.5 µM | GI50 (OVCAR-3 ovarian): 1.74 µM | TGI (OVCAR-3 ovarian): 3.33 µM | GI50 (A498 renal): 15.5 µM | TGI (A498 renal): 29 µM | GI50 (OVCAR-5 ovarian): 14.4 µM | TGI (OVCAR-5 ovarian): 27.9 µM | GI50 (UACC-62 melanoma): 11.2 µM | TGI (UACC-62 melanoma): 23.2 µM | GI50 (HL-60(TB) leukemia): 2.38 µM | TGI (HL-60(TB) leukemia): 20.9 µM | GI50 (NCI-H460 lung): 13.9 µM | TGI (NCI-H460 lung): 29.7 µM | GI50 (DU-145 prostate): 6.26 µM | TGI (DU-145 prostate): 20.4 µM | GI50 (SNB-75 CNS): 11.3 µM | TGI (SNB-75 CNS): 23.7 µM | GI50 (NCI-H522 lung): 1.65 µM | TGI (NCI-H522 lung): 3.32 µM | GI50 (CAKI-1 renal): 2.59 µM | TGI (CAKI-1 renal): 10.9 µM | GI50 (NCI-H23 lung): 12 µM | TGI (NCI-H23 lung): 27.2 µM | GI50 (MDA-MB-435): 8.96 µM | TGI (MDA-MB-435): 21.8 µM | GI50 (SK-MEL-5 melanoma): 15.2 µM | TGI (SK-MEL-5 melanoma): 29.1 µM | GI50 (HOP-62 NSCLC): 18.2 µM | TGI (HOP-62 NSCLC): 35.2 µM | GI50 (SF-268 CNS): 14.4 µM | TGI (SF-268 CNS): 33.9 µM | GI50 (NCI/ADR-RES ovarian): 17 µM | TGI (NCI/ADR-RES ovarian): 48 µM | GI50 (NCI-H226 lung): 18.2 µM | TGI (NCI-H226 lung): 40.9 µM | GI50 (SK-MEL-2 melanoma): 14.2 µM | TGI (SK-MEL-2 melanoma): 28 µM | GI50 (HCC-2998 colon): 15 µM | TGI (HCC-2998 colon): 29 µM | GI50 (M14 melanoma): 3.26 µM | TGI (M14 melanoma): 14.3 µM | GI50 (HCT-15 colon): 2.04 µM | TGI (HCT-15 colon): 4.62 µM | GI50 (SR leukemia): 2.66 µM | TGI (SR leukemia): 25.6 µM | GI50 (TK-10 renal): 7.5 µM | TGI (TK-10 renal): 21 µM | GI50 (MDA-MB-468 breast): 2.24 µM | TGI (MDA-MB-468 breast): 4.41 µM | GI50 (HOP-92 NSCLC): 7.29 µM | TGI (HOP-92 NSCLC): 20.8 µM | GI50 (MDA-MB-231 breast): 3.52 µM | TGI (MDA-MB-231 breast): 12.2 µM | GI50 (T-47D breast): 2.16 µM | TGI (T-47D breast): 5.03 µM | GI50 (U251 CNS): 17.7 µM | TGI (U251 CNS): 34.3 µM | GI50 (786-0 renal): 2.08 µM | TGI (786-0 renal): 4.98 µM | GI50 (IGROV1 ovarian): 13.1 µM | TGI (IGROV1 ovarian): 27.2 µM | GI50 (RXF 393 renal): 2.07 µM | TGI (RXF 393 renal): 4.09 µM | GI50 (HT29 colon): 3.15 µM | TGI (HT29 colon): 9.31 µM | GI50 (CCRF-CEM leukemia): 2.07 µM | TGI (CCRF-CEM leukemia): 6.22 µM | GI50 (A549 NSCLC): 19.1 µM | TGI (A549 NSCLC): 42.1 µM | GI50 (LOX IMVI melanoma): 1.54 µM | TGI (LOX IMVI melanoma): 2.92 µM | GI50 (ACHN renal): 1.7 µM | TGI (ACHN renal): 3.13 µM | GI50 (BT-549 breast): 10.1 µM | TGI (BT-549 breast): 22.6 µM | GI50 (RPMI-8226 leukemia): 3.97 µM | TGI (RPMI-8226 leukemia): > 100 µM | GI50 (UACC-257 melanoma): 13 µM | TGI (UACC-257 melanoma): 28 µM | GI50 (HCT-116 colon): 1.99 µM | TGI (HCT-116 colon): 4.58 µM | GI50 (SK-OV-3 ovarian): 21.7 µM | TGI (SK-OV-3 ovarian): 44.9 µM | GI50 (SK-MEL-28 melanoma): 12.5 µM | TGI (SK-MEL-28 melanoma): 25.2 µM | GI50 (SF-295 CNS): 15.7 µM | TGI (SF-295 CNS): 29.6 µM | GI50 (EKVX NSCLC): 12.2 µM | TGI (EKVX NSCLC): 26.6 µM | GI50 (MALME-3M melanoma): 1.67 µM | TGI (MALME-3M melanoma): 3.1 µM
